Data reported in patent US10791730B2, “Composition and methods for cryopreservation of hUTC” (DePuy Synthes Products, Inc., priority 2016, dated 2020).

Test system: umbilical cord tissue
Assay: Isolation of cells from umbilical cord tissue using varying enzyme combinations
Assay type: cell-based, human
Design: key: + = good; ++ = very good; +++ = excellent; X = no success
Conditions: enzyme digest of umbilical cord tissue
Description: Umbilical cords were obtained from National Disease Research Interchange (NDRI, Philadelphia, Pa.). The tissues were obtained following normal deliveries. The cell isolation protocols were performed aseptically in a laminar flow hood. To remove blood and debris, the cord was washed in phosphate buffered saline (PBS; Invitrogen, Carlsbad, Calif.) in the presence of penicillin at 100 U/ml, streptomycin at […] and amphotericin B at 0.25 μg/ml (Invitrogen Carlsbad, Calif.). The tissues were then mechanically dissociated in 150 cm^2 tissue culture plates in the presence of 50 ml of medium (DMEM-low glucose or DMEM-high glucose; Invitrogen) until the tissue was minced into a fine pulp. The chopped tissues were transferred to 50 ml conical tubes (approximately 5 g of tissue per tube).
The tissue was then digested in either DMEM-low glucose medium or DMEM-high glucose medium, each containing penicillin at 100 U/ml, streptomycin at […], amphotericin B at 0.25 μg/ml and the digestion enzymes. In some experiments an enzyme mixture of collagenase and dispase was used (“C:D”) (collagenase (Sigma, St Louis, Mo.), 500 U/ml; and dispase (Invitrogen), 50 U/ml, in DMEM-Low glucose medium). In other experiments a mixture of collagenase, dispase and hyaluronidase (“C:D:H”) was used (C:D:H=collagenase, 500 U/ml; dispase, 50 U/ml; and hyaluronidase (Sigma), 5 U/ml, in DMEM-Low glucose). The conical tubes containing the tissue, medium and digestion enzymes were incubated at 37° C. in an orbital shaker (Environ, Brooklyn, N.Y.) at 225 rpm for 2 hours.
After digestion, the tissues were centrifuged at 150×g for 5 minutes, the supernatant was aspirated. The pellet was resuspended in 20 ml of growth medium (DMEM:Low glucose (Invitrogen), 15% (v/v) fetal bovine serum (FBS; defined fetal bovine serum; Lot #AND18475; Hyclone, Logan, Utah), 0.001% (v/v) 2-mercaptoethanol (Sigma), penicillin at 100 U/ml, streptomycin at 100 μg/ml, and amphotericin B at 0.25 μg/ml (each from Invitrogen, Carlsbad, Calif.)). The cell suspension was filtered through a 70 μm nylon BD FALCON Cell Strainer (BD Biosciences, San Jose, Calif.). An additional 5 ml rinse comprising growth medium was passed through the strainer. The cell suspension was then passed through a 40-μm nylon cell strainer (BD Biosciences, San Jose, Calif.) and chased with a rinse of an additional 5 ml of growth medium.
The filtrate was resuspended in growth medium (total volume 50 ml) and centrifuged at 150×g for 5 minutes. The supernatant was aspirated and the cells were resuspended in 50 ml of fresh growth medium. […]
After the final centrifugation, supernatant was aspirated and the cell pellet was resuspended in 5 ml of fresh growth medium. The number of viable cells was determined using trypan blue staining. […]

Substance | Cell Expansion | Cells Isolated
Hyaluronidase | X | X
Collagenase | X | X
